In patent publication EP0565593B1, “REDUCING PESTICIDAL INTERACTIONS IN CROPS” (priority 1990, dated 1992):
Read-outs that look alike come from different tables or passages of the source.

Key:
Giant foxtail (GIFT) = experiment: whole plant or invertebrate; type: in vivo
Velvetleaf (VELE) [1] = experiment: whole plant or invertebrate; type: in vivo, Abutilon theophrasti
Velvetleaf (VELE) [2] = type: in vivo, Abutilon theophrasti; conditions: […]
Corn [3] = conditions: […]
Shattercane (SHCA) = type: in vivo; conditions: […]
Corn [4] = system: Corn
[5] = observed 7 days after POE (Table 35)
[6] = observed 7 days after POE (Table 36)
[7] = […], PPI, 13 days after PPI (Table 31)
[8] = […], PPI, 14 days after PPI (Table 34)
[9] = observed 8 days later (Table 33)
[10] = observed 9 days later (Table 29)
[11] = observed 9 days later (Table 30)
[12] = observed 8 days later (Table 32)

SMILES	% Inhibition GIFT (Giant foxtail (GIFT); in vivo) [%]	% Inhibition VELE (Velvetleaf (VELE) [1]; in vivo) [%]	% Inhibition VELE (Velvetleaf (VELE) [2]; [5]) [%]	% Inhibition VELE (Velvetleaf (VELE) [2]; [6]) [%]	% Inhibition Corn (Corn [3]; [5]) [%]	% Inhibition Corn (Corn [3]; [6]) [%]	% Inhibition SHCA (Shattercane (SHCA); [5]) [%]	% Inhibition SHCA (Shattercane (SHCA); [6]) [%]	% Inhibition Corn (Corn [4]; in vivo) [%]	% Inhibition GIFT (Giant foxtail (GIFT); [8]) [%]	% Inhibition VELE (Velvetleaf (VELE) [1]; [8]) [%]	% Inhibition VELE (Velvetleaf (VELE) [2]; [9]) [%]	% Inhibition Corn (Corn [3]; [9]) [%]	% Inhibition SHCA (Shattercane (SHCA); [9]) [%]	% Inhibition Corn (Corn [4]; [8]) [%]	% Inhibition VELE (Velvetleaf (VELE) [2]; [12]) [%]	% Inhibition Corn (Corn [3]; [12]) [%]	% Inhibition SHCA (Shattercane (SHCA); [12]) [%]	further results
[O-][n+]1ccccc1Sc1nc(Cl)c(Cl)c(Cl)c1Cl [compound 70]	70	95	90	85	70	65	70	25	75										
O=C(C(Cl)Cl)N1CCCC12CCCC2 [compound 19]										65	90	70	55	30	35				% Inhibition GIFT (Giant foxtail (GIFT); [7]): 75%; % Inhibition VELE (Velvetleaf (VELE) [1]; [7]): 80%; % Inhibition VELE (Velvetleaf (VELE) [2]; [10]): 95%; % Inhibition VELE (Velvetleaf (VELE) [2]; [11]): 70%; % Inhibition Corn (Corn [3]; [10]): 20%; % Inhibition Corn (Corn [3]; [11]): 35%; % Inhibition SHCA (Shattercane (SHCA); [10]): 80%; % Inhibition SHCA (Shattercane (SHCA); [11]): 30%; % Inhibition Corn (Corn [4]; [7]): 55%
Cc1cccc(C)c1C(OCC(=O)O)c1c(C)cccc1C [compound 56]										75	85	75	60	30	65	85	60	75	
O=C(COC(c1ccccc1)c1ccccc1)Oc1cccc([N+](=O)[O-])c1 [compound 57]										70	80		65	35	65	85	15	80	
CCOC(=O)c1sc(I)nc1C(F)(F)F [compound 67]	75	95	85	70	35	45	65	40	55										
CCCCCCCCOC(=O)c1sc(Cl)nc1C(F)(F)F [compound 63]	70	90	80	65	30	55	70	40	65										
O=C(Oc1ccccc1)c1sc(Cl)nc1C(F)(F)F [compound 64]	70	90	75	70	20	60	65	35	60										
CCCCOC(=O)c1sc(Cl)nc1C(F)(F)F [compound 61]	70	90	75	65	35	55	65	35	60										
O=C(O)COC(c1ccccc1)c1cccc(C(F)(F)F)c1 (centres unmarked) [compound 49]										65	100	80	70	30	55	90	45	70	
N#CCCOC(=O)COC(c1ccccc1)c1ccccc1 [compound 52]										65	85	75	45	25	40	85	20	70	
CCOC(=O)CNC(c1ccc(Cl)cc1)c1ccc(Cl)cc1 [compound 44]										65	95	65	60	30	75	85	65	80	
CC(C)(C)c1ccccc1SCCC#N [compound 74]	85	90	80	70	65	60	80	20	70										
CC1(C)OC(c2cc3ccccc3o2)CN1C(=O)C(Cl)Cl (centres unmarked) [compound 38]																			% Inhibition GIFT (Giant foxtail (GIFT); [7]): 70%; % Inhibition VELE (Velvetleaf (VELE) [1]; [7]): 85%; % Inhibition VELE (Velvetleaf (VELE) [2]; [10]): 95%; % Inhibition VELE (Velvetleaf (VELE) [2]; [11]): 70%; % Inhibition Corn (Corn [3]; [10]): 20%; % Inhibition Corn (Corn [3]; [11]): 45%; % Inhibition SHCA (Shattercane (SHCA); [10]): 80%; % Inhibition SHCA (Shattercane (SHCA); [11]): 25%; % Inhibition Corn (Corn [4]; [7]): 50%
C#CCOC(=O)COC(c1ccccc1)c1ccccc1 [compound 54]										60	90	65	55	20	55	90	30	70	
CNC(=O)COC(c1ccccc1)c1ccccc1 [compound 42]										70	90	70	60	30	75	90	70	75	
CCCCCCOC(=O)c1sc(Cl)nc1C(F)(F)F [compound 62]	75	95	80	60	30	55	65	30	65										
Cn1cccc1C1CN(C(=O)C(Cl)Cl)C(C)(C)O1 (centres unmarked) [compound 35]																			% Inhibition GIFT (Giant foxtail (GIFT); [7]): 70%; % Inhibition VELE (Velvetleaf (VELE) [1]; [7]): 80%; % Inhibition VELE (Velvetleaf (VELE) [2]; [10]): 90%; % Inhibition VELE (Velvetleaf (VELE) [2]; [11]): 65%; % Inhibition Corn (Corn [3]; [10]): 20%; % Inhibition Corn (Corn [3]; [11]): 35%; % Inhibition SHCA (Shattercane (SHCA); [10]): 75%; % Inhibition SHCA (Shattercane (SHCA); [11]): 30%; % Inhibition Corn (Corn [4]; [7]): 40%
CC1(C)OC(c2cccnc2)CN1C(=O)C(Cl)Cl (centres unmarked) [compound 27]																			% Inhibition GIFT (Giant foxtail (GIFT); [7]): 75%; % Inhibition VELE (Velvetleaf (VELE) [1]; [7]): 85%; % Inhibition VELE (Velvetleaf (VELE) [2]; [10]): 85%; % Inhibition VELE (Velvetleaf (VELE) [2]; [11]): 75%; % Inhibition Corn (Corn [3]; [10]): 25%; % Inhibition Corn (Corn [3]; [11]): 30%; % Inhibition SHCA (Shattercane (SHCA); [10]): 75%; % Inhibition SHCA (Shattercane (SHCA); [11]): 30%; % Inhibition Corn (Corn [4]; [7]): 30%
CC1(C)OC(Cc2ccccc2)CN1C(=O)C(Cl)Cl (centres unmarked) [compound 34]																			% Inhibition GIFT (Giant foxtail (GIFT); [7]): 75%; % Inhibition VELE (Velvetleaf (VELE) [1]; [7]): 80%; % Inhibition VELE (Velvetleaf (VELE) [2]; [10]): 85%; % Inhibition VELE (Velvetleaf (VELE) [2]; [11]): 70%; % Inhibition Corn (Corn [3]; [10]): 15%; % Inhibition Corn (Corn [3]; [11]): 35%; % Inhibition SHCA (Shattercane (SHCA); [10]): 70%; % Inhibition SHCA (Shattercane (SHCA); [11]): 25%; % Inhibition Corn (Corn [4]; [7]): 35%
CCCOC(=O)COC(c1ccccc1)c1ccccc1 [compound 47]										65	85	75	50	30	60	85	25	75	
C=CCC(C)(C#N)Sc1ccc(C(C)C)cc1 (centres unmarked) [compound 75]	75	85	85	75	70	65	70	40	75										
CC1(C)OC(c2cccs2)CN1C(=O)C(Cl)Cl (centres unmarked) [compound 22]																			% Inhibition GIFT (Giant foxtail (GIFT); [7]): 70%; % Inhibition VELE (Velvetleaf (VELE) [1]; [7]): 80%; % Inhibition VELE (Velvetleaf (VELE) [2]; [10]): 85%; % Inhibition VELE (Velvetleaf (VELE) [2]; [11]): 75%; % Inhibition Corn (Corn [3]; [10]): 20%; % Inhibition Corn (Corn [3]; [11]): 40%; % Inhibition SHCA (Shattercane (SHCA); [10]): 65%; % Inhibition SHCA (Shattercane (SHCA); [11]): 25%; % Inhibition Corn (Corn [4]; [7]): 45%
CCOC(=O)c1sc(Br)nc1C(F)(F)F [compound 66]	70	90	80	60	30	50	60	25	50										
CC(Cl)C(=O)Nc1nc(C(F)(F)F)c(I)s1 (centres unmarked) [compound 72]	75	90	85	70	70	60	75	30	75										
O=C(COC(c1ccccc1)c1ccccc1)OCC(F)(F)F [compound 48]										60	95	70	45	25	30	90	20	80	
CC(C)(C)OC(=O)COC1c2ccccc2CCc2ccccc21 [compound 45]										75	90	70	65	25	70	80	65	85	
